Test results as given in patent publication US20070071794A1, “DRUGS FOR TREATING DIABETES” (priority 2004, published 2007).

Legend:
[1] = system: INS-1 cells derived from pancreatic β cells of rats; test: Effect of improving insulin secretion defects in INS-1 cells cultured under high glucose; format: cell-based; conditions: for Index of insulin secretion improvement: 25 mM glucose 28 h, then 11.1 mM glucose + amino acid at 10 times RPMI concentration 19 h, secretion in 16.7 mM glucose 2 h, 0 = defective cond., 1 = ordinary cond.; for improvement in insulin secretion defects (significance): secretion defective + amino acid condition, p<0.05
Text: INS-1 cells derived from pancreatic β cells of rats were dispersed in each amount of 2×10^5 cells on a 24-well culture plate, then divided into three groups and cultured under the following conditions. That is:
First Group: Culture on RPMI medium (Non-patent Literature 4) under the ordinary condition.
Second Group: Culture under the secretion defective condition by culture under the high glucose concentration. That is, the glucose concentration was increased under the culture conditions of the first group.
Third Group: Under the culture condition of the second group, culture was conducted so that the end concentration of aspartic acid, cystine, serine, asparagine, isoleucine, histidine, hydroxyproline, glutamic acid or valine in the medium became 10 times as high as the concentration thereof in the RPMI medium.
First Group: ordinary condition
• cultured in 11.1 mM glucose for 28 hours, • cultured in 11.1 mM glucose for 19 hours Second Group: secretion defective condition • cultured in 25 mM glucose for 28 hours, • cultured in 11.1 mM glucose for 19 hours Third Group: secretion defective+amino acid condition • cultured in 25 mM glucose for 28 hours,
cultured in 11.1 mM glucose+amino acids for 19 hours
Those cultured cells were further cultured for 1 hour in KRBH buffer (Non-patent Literature 5), and cultured for 2 hours in KRBH buffer containing 16.7 mM glucose. Then, insulin secretion rate was determined. Under the secretion defective condition of the second group, the insulin secretion rate of […] lowered to about 60% of that under the ordinary condition. The effect of improving insulin secretion defects of amino acids was calculated by the following index. Index of insulin secretion improvement=((insulin secretion of the third group)−(insulin secretion of the second group))/((insulin secretion of the first group)−(insulin secretion of the second group))
(Reference: The index of insulin secretion improvement becomes 0 when the insulin secretion in administration of amino acids is same as that in the secretion defective condition, and it becomes 1 when the insulin secretion in administration of amino acids is same as that in the ordinary condition.)

GK rats = test: Glucose tolerance test in GK rats fed aspartic acid (blood glucose ΔAUC, insulinogenic index); format: in vivo; conditions: for ΔAUC (blood glucose, glucose tolerance test): eighth week, oral 1 g/kg glucose after 5 hour fasting, CON group 230
Experimental: Male GK rats (7 weeks old) were fed in the following groups.
CON Group: 5 GK rats Controlled food was administered.
3AS Group: 5 GK rats Food with 3% aspartic acid was administered.
6AS Group: 5 GK rats Food with 6% aspartic acid was administered.
In the eighth week of administration, the glucose tolerance test (oral administration of 1 g/kg of glucose) was conducted to the rats after 5 hour fasting, and their blood glucose and insulin levels were determined over time.
Insulinogenic index was determined from the results of the glucose tolerance test after eight week administration in Example 2. Insulinogenic index is the value wherein the insulin rate secreted in 15 minutes after adding glucose was divided by the glucose level that increased in 15 minutes after adding glucose.

[2] = system: INS-1 cells derived from pancreatic β cells of rats; test: Insulin secretion of INS-1 cells with aspartic acid combined with an insulin secretagogue; format: cell-based; conditions: 5 mM glucose, 2 hours; for insulin secretion rate: n=3, Cond. 1 (no drug) 2.85±0.49; for insulin secretion increase (significance, in words): KRBH buffer, 0.3 μM nateglinide and/or 10 mM aspartic acid, compared to Condition 1 (combination also to Conditions 2, 3)
Experimental: INS-1 cells derived from pancreatic β cells of rats were dispersed in each amount of 2×10^5 cells on a 24-well culture plate, and cultured on RPMI medium for 48 hours. […] Condition 1: KRBH buffer, 5 mM glucose Condition 2: KRBH buffer, 5 mM glucose, 0.3 μM nateglinide Condition 3: […] Condition 4: […]

Row | SMILES | Index of insulin secretion improvement [1] | improvement in insulin secretion defects (significance) [1] | also measured
1 | N[C@@H](CC(=O)O)C(=O)O [Asp, L-aspartic acid] | 1.75 | significantly improved | ΔAUC (blood glucose, glucose tolerance test) (GK rats; 3AS group: food with 3% aspartic acid): 190 mg·h/dL; ΔAUC (blood glucose, glucose tolerance test) (GK rats; 6AS group: food with 6% aspartic acid): 140 mg·h/dL; Insulinogenic index (result in words) (GK rats; food with 3% or 6% aspartic acid, eight weeks, insulin secreted / glucose increase in 15 minutes after glucose): improved corresponding to the administered dose; glucose tolerance (result in words) (GK rats; food with 6% aspartic acid, after eight week administration): improvement in the glucose tolerance was seen; insulin secretion rate ([2]; Condition 3: KRBH buffer, 10 mM aspartic acid): 3.69 ± 0.87 ng/mL; insulin secretion increase (significance, in words) [2]: significant insulin secretion increase was not seen
2 | N[C@@H](CO)C(=O)O [Ser, serine] | 0.97 | significantly improved | –
3 | O=C(O)[C@@H]1C[C@@H](O)CN1 [Hydroxyproline, hydroxyproline] | 0.64 | significantly improved | –
4 | N[C@@H](CCC(=O)O)C(=O)O [Glu, glutamic acid] | 0.57 | significantly improved | –
5 | CC(C)[C@H]1CC[C@H](C(=O)N[C@H](Cc2ccccc2)C(=O)O)CC1 [nateglinide, reference compound] | – | – | insulin secretion rate ([2]; Condition 2: KRBH buffer, 0.3 μM nateglinide): 4.34 ± 1.19 ng/mL; insulin secretion increase (significance, in words) [2]: significant insulin secretion increase was not seen
6 | N[C@@H](Cc1c[nH]cn1)C(=O)O [His, histidine] | 0.67 | significantly improved | –
7 | CC[C@H](C)[C@H](N)C(=O)O [Ile, isoleucine] | 0.84 | significantly improved | –
8 | NCCCC[C@H](N)C(=O)O [lysine, reference compound] | – | significant improvement in insulin secretion defects was not confirmed | –
9 | CC(C)C[C@H](N)C(=O)O [leucine, reference compound] | – | significant improvement in insulin secretion defects was not confirmed | –
10 | N=C(N)NCCC[C@H](N)C(=O)O [arginine, reference compound] | – | significant improvement in insulin secretion defects was not confirmed | –
11 | N[C@@H](CSSC[C@H](N)C(=O)O)C(=O)O [Cystine, cystine] | 1.08 | significantly improved | –
12 | NC(=O)C[C@H](N)C(=O)O [Asn, asparagine] | 0.87 | significantly improved | –
13 | CC(C)[C@H](N)C(=O)O [Val, valine] | 0.35 | significantly improved | –
